For one experiment, the target named is human MC4R (Homo sapiens, UniProt P32245). As to the kind of experiment: human MC4R agonist activity. Type of experiment: cell-based.
The next experiment concerns the target T1, Human MC1R (Homo sapiens, UniProt Q01726).
T1 construct: endogenous in cells; host or cells: human melanoma cell line HBL
Nature of the experiment: MCR agonist measurement (cAMP measurement), human MC1R agonist activity in human melanoma cell line HBL. Type of experiment: cell-based. The note with it: HBL cells.

T1 sequence (Q01726 whole entry): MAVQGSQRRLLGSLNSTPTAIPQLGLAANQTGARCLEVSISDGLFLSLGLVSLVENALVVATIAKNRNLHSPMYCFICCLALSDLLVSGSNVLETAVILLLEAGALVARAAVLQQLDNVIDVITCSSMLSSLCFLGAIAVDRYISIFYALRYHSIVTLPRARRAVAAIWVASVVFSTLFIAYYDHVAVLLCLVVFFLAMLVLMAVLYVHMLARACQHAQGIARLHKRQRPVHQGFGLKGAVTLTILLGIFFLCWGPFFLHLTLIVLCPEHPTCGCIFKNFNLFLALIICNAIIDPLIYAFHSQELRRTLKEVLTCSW
human MC4R, sequence (P32245 whole entry): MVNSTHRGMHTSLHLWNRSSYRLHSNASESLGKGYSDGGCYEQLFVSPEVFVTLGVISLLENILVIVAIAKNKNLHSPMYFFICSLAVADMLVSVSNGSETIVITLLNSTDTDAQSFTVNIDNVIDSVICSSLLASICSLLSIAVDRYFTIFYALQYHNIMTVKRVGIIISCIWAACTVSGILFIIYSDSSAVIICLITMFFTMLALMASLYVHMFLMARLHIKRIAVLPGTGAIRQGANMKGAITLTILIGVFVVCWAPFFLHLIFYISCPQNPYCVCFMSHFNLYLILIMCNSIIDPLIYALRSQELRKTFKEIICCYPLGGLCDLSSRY

Regarding `COC[C@@H]1C[C@@H](c2ccc(F)cc2N2CCC(C(=O)O)CC2)CN1C(=O)[C@]1(F)CN([C@H]2CC[C@H](OC)CC2)C[C@H]1c1ccc(OC)cc1.Cl.Cl` [Example 147, 1-{5-fluoro-2-[(3S,5S)-1-{[(3R,4R)-3-fluoro-1-(trans-4-methoxycyclohexyl)-4-(4-methoxyphenyl)pyrrolidin-3-yl]carbonyl}-5-(methoxymethyl)pyrrolidin-3-yl]phenyl}piperidine-4-carboxylic acid dihydrochloride], the EC50 on human MC4R was found to be 341 nM; on Human MC1R (37° C. for 30 minutes, intracellular cAMP by fluorescence method) it was 1.7 nM. Also, on Human MC1R (Intrinsic Activity, vehicle cAMP = 0%, αMSH at 10^-6 M = 100%), the “Human MC1R IA %” value is 102%.

The term EC50 denotes the concentration giving half of the maximal effect.

For the origin of these results see US9981960B2, “Pyrrolidine compound and application as melanocortin receptor agonist” (MITSUBISHI TANABE PHARMA CORPORATION, priority 2014, dated 2018).
